Each block holds one compound with its values, some of them ahead of it.
What was measured:
[1] = system: Triton-induced hyperlipidemic rats; experiment: Antihyperlipidemic activity in Triton-induced hyperlipidemic rats, method A (24 hours) (Test 2); format: in vivo, rat (male S.D.)
Description: (§1) Cholesterol in serum was measured by means of a cholesterol measuring kit (Cholesterol C-Test Wako, manufactured by Wako Junyaku Co., Ltd.), and cholesterol in HDL was measured by means of NC Hi-Set, manufactured by Nippon Chemiphar Co., Ltd. The quantitative analysis of triglyceride was conducted by means of a triglyceride measuring kit (Triglyceride C-II-Test Wako, manufactured by Wako Junyaku Co., Ltd.). Further, the change rate in the following Tables, was calculated by the following equation. Change rate(%)=(A-B/A)×100 where A is the amount of serum lipids (mg/dl) of the control group, and B is the amount of serum lipids (mg/dl) of the group to which the therapeutic agent was administered. The antihyperlipidemic activity in Triton-induced hyperlipidemic rats Male S.D. rats weighing 230-250 g (7 weeks old) were divided into groups of 5 rats each and injected with a physiological saline solution of Triton Wr-1339 in a dose of 250 mg/kg (5 ml/kg) i.v. through the tail vein. […] The test compounds suspended in 0.5% CMC-Na were given to the rats in an amount of 2 ml/kg via stomach tube 1 hour before and 5 hours after (in the case of method A) or 1 hour before and 23 hours after (in the case of method B) the injection of Triton solution. Control rats received the same volume of the vehicle. The animals were fasted during the experimental period. The total cholesterol and triglyceride in the serum were measured.

[2] = system: Triton-induced hyperlipidemic rats; experiment: Antihyperlipidemic activity in Triton-induced hyperlipidemic rats, method B (43 hours) (Test 2); format: in vivo, rat (male S.D.)
Description: as §1

[3] = reported for the agent and its derivatives; cited from earlier work
[4] = animal experiments; Svoboda and Azarnoff, Cancer Res. 39, 3419 (1979); cited from earlier work
[5] = system: normal rats; experiment: Activities against serum lipid, degree of hepatomegaly and GOT/GPT in normal rats (Test 5); format: in vivo, rat (male S.D.); conditions: 300 mg/kg/day, seven days
Description: (§2) It is administered from once to three times per day. The dose may of course be varied depending upon the age, the weight or the condition of illness of the patient. […] In the following tests, the fractionation of lipoproteins was conducted by a dextran sulfate-MgCl2 precipitation method.
(§3) Cholesterol in serum was measured by means of a cholesterol measuring kit (Cholesterol C-Test Wako, manufactured by Wako Junyaku Co., Ltd.), and cholesterol in HDL was measured by means of NC Hi-Set, manufactured by Nippon Chemiphar Co., Ltd. The quantitative analysis of triglyceride was conducted by means of a triglyceride measuring kit (Triglyceride C-II-Test Wako, manufactured by Wako Junyaku Co., Ltd.).
(§4) Further, the change rate in the following Tables, was calculated by the following equation.
(§5) Change rate(%)=(A-B/A)×100
(§6) where A is the amount of serum lipids (mg/dl) of the control group, and B is the amount of serum lipids (mg/dl) of the group to which the therapeutic agent was administered.
The activities against serum lipid, the degree of hepatomegaly and the hepatic drug metabolizing systems of normal rats
Male S.D. rats (6 weeks old) were divided into groups of 5 rats each. The test compounds suspended in 5% gum arabic were given to the rats once a day for seven days in a daily dose of 300 mg/kg. Then, the rats were fasted for one day, blood samples were taken, and the total cholesterol, triglyceride, HDL-cholesterol in the serum were quantitatively analyzed. Further, the liver weight was measured, and the degree of hepatomegaly was determined by comparing the weight ratio per 100 g of the body weight with that of the control group. Furthermore, GOT and GPT values were measured, and the activities of cytochrome P-450 and glutathione related enzymes were also measured. These values were compared with those of the control groups to investigate any abnormality.

[6] = system: emulsion-induced hyperlipidemic rats; experiment: Antihyperlipidemic activity in emulsion-induced hyperlipidemic rats (Test 1); format: in vivo, rat (male S.D.); conditions: 300 mg/kg/day p.o., 3 days
Description: The daily dose of the compound of the formula I is from 0.01 to 3.0 g, preferably from 0.1 to 1.5 g, for an adult. It is administered from once to three times per day. The dose may of course be varied depending upon the age, the weight or the condition of illness of the patient. Now, the usefulness of the compound of the formula I as an antiatherosclerotic agent will be shown by tests. In the following tests, the fractionation of lipoproteins was conducted by a dextran sulfate-MgCl2 precipitation method.
as §3, §4, §5, §6
The antihyperlipidemic activity in emulsion-induced hyperlipidemic rats
Male S.D. rats weighing 80-90 g (4 weeks old) were used. They were divided into groups of 5 to 6 rats each. The test compounds suspended in 0.5% CMC-Na(carboxymethyl cellulose sodium salt) were given to the rats in a daily dose of 4 ml/kg via stomach tube every 10:00 a.m. After 30 min., lipids emulsion having the following composition was orally given to the rats in an amount of 2.5 ml per rat. During the experimental period of 3 days, the rats were fed on a standard commercial diet and water ad libitum. […] The total cholesterol and triglyceride, and HDL cholesterol were measured.

[7] = system: cholesterol-fed hyperlipidemic rats; experiment: Antihyperlipidemic activity in cholesterol-fed hyperlipidemic rats (Test 3); format: in vivo, rat (male S.D.)
Description: as §2, §3, §4
Change rate(%)=(A-B/A)×100 where A is the amount of serum lipids (mg/dl) of the control group, and B is the amount of serum lipids (mg/dl) of the group to which the therapeutic agent was administered.
The antihyperlipidemic activity in cholesterol-fed hyperlipidemic rats
Male S.D. rats weighing 80-90 g (30 days old) were divided into groups of 5 rats each. The test compounds suspended in 0.5% CMC-Na were given to the rats in a daily dose of 0.4 ml per 100 g rat via stomach tube every 10:00 a.m. for 7 or 14 days. Control groups were given an equal volume of the vehicle. […] The total cholesterol, triglyceride and HDL cholesterol in serum were measured. After sacrificed, the livers were excised, washed with physiological saline, blotted on filter paper and weighed. The degree of hepatomegaly was calculated by the following equation.
Degree of hepatomegaly (%)=(D-C/C)×100 where C is the liver weight (g) per 100 g body weight in the control animal, and D is the liver weight (g) per 100 g body weight in the drug treated animal.

SMILES: CCC(C)(Oc1ccc(C2(c3ccc(OC(C)(CC)C(=O)O)cc3)CCCCC2)cc1)C(=O)O (stereo not shown) [Clinofibrate]
Change rate after 24 hours, Chol ([1]; 150 mg/kg p.o.): -21.0%
Change rate after 24 hours, TG ([1]; 150 mg/kg p.o.): -33.0%
Change rate after 43 hours, Chol ([2]; 150 mg/kg p.o.): -38.0%
Change rate after 43 hours, TG ([2]; 150 mg/kg p.o.): -52.0%

SMILES: O=C(O)c1cccnc1 [nicotinic acid]
Reported side effects [3]: flashing or gastroenteric troubles

Degree of hepatomegaly ([5]; vs control): +72.0%
Degree of hepatomegaly ([7]; 7th day, 50 mg/kg/day p.o.): +6.0%
Degree of hepatomegaly ([7]; 7th day, 150 mg/kg/day p.o.): +20.0%
Degree of hepatomegaly ([7]; 14th day, 50 mg/kg/day p.o.): +8.8%
Degree of hepatomegaly ([7]; 14th day, 150 mg/kg/day p.o.): +22.8%
SMILES: CCOC(=O)C(C)(C)Oc1ccc(Cl)cc1 [Clofibrate, reference compound]
Hepatic carcinoma [4]: brings about hepatic carcinoma
Change rate after 24 hours, Chol ([1]; 300 mg/kg p.o.): -5.0%
Change rate after 24 hours, TG ([1]; 300 mg/kg p.o.): +89.7%
Serum lipid, HDL-Chol [5]: 11.0 mg/dL
Serum lipid, TG [5]: 39.2 mg/dL
Serum lipid, Total-Chol [5]: 20.6 mg/dL
Change rate, HDL-Chol ([5]; vs control): -62.7%
Change rate, TG ([5]; vs control): -17.5%
Change rate, Total-Chol ([5]; vs control): -56.0%
Change rate after 43 hours, Chol ([2]; 300 mg/kg p.o.): -0.5%
Change rate after 43 hours, TG ([2]; 300 mg/kg p.o.): +150.1%
Serum lipid, HDL-Chol [6]: 16.8 mg/dL
Serum lipid, TG [6]: 87.7 mg/dL
Serum lipid, Total Chol [6]: 96.4 mg/dL
Change rate, HDL-Chol ([6]; vs control): +37.0%
Change rate, TG ([6]; vs control): -42.7%
Change rate, Total Chol ([6]; vs control): -63.5%
Reported side effects [3]: myalgia or hepatic insufficiency, and they are likely to lead to gallstone formation
Change rate, HDL-Chol ([7]; 7th day, 50 mg/kg/day p.o.): -20.4%
Change rate, TG ([7]; 7th day, 50 mg/kg/day p.o.): +8.7%
Change rate, Total-Chol ([7]; 7th day, 50 mg/kg/day p.o.): -4.3%
Serum lipid, HDL-Chol ([7]; 7th day, 50 mg/kg/day p.o.): 14.4 mg/dL
Serum lipid, TG ([7]; 7th day, 50 mg/kg/day p.o.): 133.5 mg/dL
Serum lipid, Total-Chol ([7]; 7th day, 50 mg/kg/day p.o.): 417.5 mg/dL
Change rate, HDL-Chol ([7]; 7th day, 150 mg/kg/day p.o.): -34.8%
Change rate, TG ([7]; 7th day, 150 mg/kg/day p.o.): -9.0%
Change rate, Total-Chol ([7]; 7th day, 150 mg/kg/day p.o.): -23.8%
Serum lipid, HDL-Chol ([7]; 7th day, 150 mg/kg/day p.o.): 11.8 mg/dL
Serum lipid, TG ([7]; 7th day, 150 mg/kg/day p.o.): 111.8 mg/dL
Serum lipid, Total-Chol ([7]; 7th day, 150 mg/kg/day p.o.): 332.2 mg/dL
Change rate, HDL-Chol ([7]; 14th day, 50 mg/kg/day p.o.): +8.0%
Change rate, TG ([7]; 14th day, 50 mg/kg/day p.o.): -30.1%
Change rate, Total-Chol ([7]; 14th day, 50 mg/kg/day p.o.): -28.5%
Serum lipid, HDL-Chol ([7]; 14th day, 50 mg/kg/day p.o.): 9.4 mg/dL
Serum lipid, TG ([7]; 14th day, 50 mg/kg/day p.o.): 116.6 mg/dL
Serum lipid, Total-Chol ([7]; 14th day, 50 mg/kg/day p.o.): 418.4 mg/dL
Change rate, HDL-Chol ([7]; 14th day, 150 mg/kg/day p.o.): +68.1%
Change rate, TG ([7]; 14th day, 150 mg/kg/day p.o.): -29.8%
Change rate, Total-Chol ([7]; 14th day, 150 mg/kg/day p.o.): -28.3%
Serum lipid, HDL-Chol ([7]; 14th day, 150 mg/kg/day p.o.): 15.8 mg/dL
Serum lipid, TG ([7]; 14th day, 150 mg/kg/day p.o.): 117.7 mg/dL
Serum lipid, Total-Chol ([7]; 14th day, 150 mg/kg/day p.o.): 420.0 mg/dL
